In the supplement of paper PMC10307832:

Assays:
Experiment in all cases: relative viability (nuclei count vs DMSO), 5 days (fraction); higher = more cells survive
[1] = compound: CCN(CCO)CCCC(C)Nc1ccnc2cc(Cl)ccc12 [Hydroxychloroquine] + CS(=O)(=O)CCNCc1ccc(-c2ccc3ncnc(Nc4ccc(OCc5cccc(F)c5)c(Cl)c4)c3c2)o1 [Lapatinib] (partner 2 µM)
Method in brief: (§1)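 Relative viability was taken as the ratio of nuclei in treated wells to nuclei in vehicle wells. Lung cancer cell lines in 1536-well plates received compounds by pin tool one day after seeding, either one drug alone or a fixed anchor-drug dose plus five library-drug doses (not always all listed) in √10 steps. Nuclei were counted on 4× images after 5 days of treatment, and values are medians of duplicate plates.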

[2] = compound: CCN(CCO)CCCC(C)Nc1ccnc2cc(Cl)ccc12 [Hydroxychloroquine] + CCNC(=O)c1noc(-c2cc(C(C)C)c(O)cc2O)c1-c1ccc(CN2CCOCC2)cc1 [Luminespib] (partner 0.01 µM)
Method in brief: as §1

[3] = compound: CCN(CCO)CCCC(C)Nc1ccnc2cc(Cl)ccc12 [Hydroxychloroquine] + O=C(c1cc(Cc2n[nH]c(=O)c3ccccc23)ccc1F)N1CCN(C(=O)C2CC2)CC1 [Olaparib] (partner 8 µM)
Method in brief: as §1

[4] = compound: CCN(CCO)CCCC(C)Nc1ccnc2cc(Cl)ccc12 [Hydroxychloroquine] + Nc1ncn([C@H]2C[C@H](O)[C@@H](CO)O2)c(=O)n1 [Decitabine] (partner 2 µM)
Method in brief: as §1

With COR-L23 the relative viability ([1]; first compound 0.5 µM) was 0.681, the relative viability ([1]; first compound 1.581 µM) was 0.992 and the relative viability ([1]; first compound 5 µM) was 0.992. The relative viability ([1]; first compound 15.81 µM) was 1.23, the relative viability ([1]; first compound 50 µM) was 1.21 and the relative viability ([2]; first compound 0.5 µM) was 0.683. It also gave a relative viability ([2]; first compound 1.581 µM) of 0.662, a relative viability ([2]; first compound 5 µM) of 0.818 and a relative viability ([2]; first compound 15.81 µM) of 0.948. It also gave a relative viability ([2]; first compound 50 µM) of 0.705, a relative viability ([3]; first compound 0.5 µM) of 0.315 and a relative viability ([3]; first compound 1.581 µM) of 0.345. For the same cell line, the relative viability ([3]; first compound 5 µM) was 0.381, the relative viability ([3]; first compound 15.81 µM) was 0.353 and the relative viability ([3]; first compound 50 µM) was 0.387. The relative viability ([4]; first compound 0.5 µM) was 0.451, the relative viability ([4]; first compound 1.581 µM) was 0.452 and the relative viability ([4]; first compound 5 µM) was 0.397. It also gave a relative viability ([4]; first compound 15.81 µM) of 0.416 and a relative viability ([4]; first compound 50 µM) of 0.534.
NCI-H1944 was tested, and the relative viability ([1]; first compound 0.5 µM) was 0.762, the relative viability ([1]; first compound 1.581 µM) was 0.755 and the relative viability ([1]; first compound 5 µM) was 0.797. The relative viability ([1]; first compound 15.81 µM) was 0.867, the relative viability ([1]; first compound 50 µM) was 0.967 and the relative viability ([2]; first compound 0.5 µM) was 0.772. It also gave a relative viability ([2]; first compound 1.581 µM) of 0.676, a relative viability ([2]; first compound 5 µM) of 0.64 and a relative viability ([2]; first compound 15.81 µM) of 0.866. The relative viability ([2]; first compound 50 µM) was 0.831, the relative viability ([3]; first compound 0.5 µM) was 0.417 and the relative viability ([3]; first compound 1.581 µM) was 0.445. For the same cell line, the relative viability ([3]; first compound 5 µM) was 0.416, the relative viability ([3]; first compound 15.81 µM) was 0.414 and the relative viability ([3]; first compound 50 µM) was 0.402. It also gave a relative viability ([4]; first compound 0.5 µM) of 0.4, a relative viability ([4]; first compound 1.581 µM) of 0.44 and a relative viability ([4]; first compound 5 µM) of 0.423. It also gave a relative viability ([4]; first compound 15.81 µM) of 0.483 and a relative viability ([4]; first compound 50 µM) of 0.429.
NCI-H2405 showed a relative viability ([1]; first compound 0.5 µM) of 1.09, a relative viability ([1]; first compound 1.581 µM) of 0.998 and a relative viability ([1]; first compound 5 µM) of 1.1. The relative viability ([1]; first compound 15.81 µM) was 1.04, the relative viability ([1]; first compound 50 µM) was 1.15 and the relative viability ([2]; first compound 0.5 µM) was 0.763. It also gave a relative viability ([2]; first compound 1.581 µM) of 0.613, a relative viability ([2]; first compound 5 µM) of 0.671 and a relative viability ([2]; first compound 15.81 µM) of 0.663. The relative viability ([2]; first compound 50 µM) was 0.579, the relative viability ([3]; first compound 0.5 µM) was 0.934 and the relative viability ([3]; first compound 1.581 µM) was 0.87. The relative viability ([3]; first compound 5 µM) was 0.836, the relative viability ([3]; first compound 15.81 µM) was 0.886 and the relative viability ([3]; first compound 50 µM) was 0.861. For the same cell line, the relative viability ([4]; first compound 0.5 µM) was 0.718, the relative viability ([4]; first compound 1.581 µM) was 0.743 and the relative viability ([4]; first compound 5 µM) was 0.774. For the same cell line, the relative viability ([4]; first compound 15.81 µM) was 0.69 and the relative viability ([4]; first compound 50 µM) was 0.761.
Work on SW 1573 yielded a relative viability ([1]; first compound 0.5 µM) of 0.98, a relative viability ([1]; first compound 1.581 µM) of 1.01 and a relative viability ([1]; first compound 5 µM) of 1.15. The relative viability ([1]; first compound 15.81 µM) was 1.07, the relative viability ([1]; first compound 50 µM) was 0.997 and the relative viability ([2]; first compound 0.5 µM) was 0.399. It also gave a relative viability ([2]; first compound 1.581 µM) of 0.153, a relative viability ([2]; first compound 5 µM) of 0.203 and a relative viability ([2]; first compound 15.81 µM) of 0.174. The relative viability ([2]; first compound 50 µM) was 0.193, the relative viability ([3]; first compound 0.5 µM) was 0.504 and the relative viability ([3]; first compound 1.581 µM) was 0.484. For the same cell line, the relative viability ([3]; first compound 5 µM) was 0.432, the relative viability ([3]; first compound 15.81 µM) was 0.472 and the relative viability ([3]; first compound 50 µM) was 0.458. It also gave a relative viability ([4]; first compound 0.5 µM) of 0.444, a relative viability ([4]; first compound 1.581 µM) of 0.296 and a relative viability ([4]; first compound 5 µM) of 0.409. It also gave a relative viability ([4]; first compound 15.81 µM) of 0.554 and a relative viability ([4]; first compound 50 µM) of 0.428.
EMC-BAC-2 was tested, and the relative viability ([1]; first compound 0.5 µM) was 0.96, the relative viability ([1]; first compound 1.581 µM) was 0.722 and the relative viability ([1]; first compound 5 µM) was 0.897. The relative viability ([1]; first compound 15.81 µM) was 0.832, the relative viability ([1]; first compound 50 µM) was 0.956 and the relative viability ([2]; first compound 0.5 µM) was 1.2. The relative viability ([2]; first compound 1.581 µM) was 1.03, the relative viability ([2]; first compound 5 µM) was 1.14 and the relative viability ([2]; first compound 15.81 µM) was 1.18. For the same cell line, the relative viability ([2]; first compound 50 µM) was 1.19, the relative viability ([3]; first compound 0.5 µM) was 0.508 and the relative viability ([3]; first compound 1.581 µM) was 0.439. For the same cell line, the relative viability ([3]; first compound 5 µM) was 0.472, the relative viability ([3]; first compound 15.81 µM) was 0.484 and the relative viability ([3]; first compound 50 µM) was 0.442. The relative viability ([4]; first compound 0.5 µM) was 1.01, the relative viability ([4]; first compound 1.581 µM) was 0.863 and the relative viability ([4]; first compound 5 µM) was 0.965. The relative viability ([4]; first compound 15.81 µM) was 0.952 and the relative viability ([4]; first compound 50 µM) was 0.952.
NCI-H1650 was tested, and the relative viability ([1]; first compound 0.5 µM) was 0.844, the relative viability ([1]; first compound 1.581 µM) was 0.697 and the relative viability ([1]; first compound 5 µM) was 0.702. It also gave a relative viability ([1]; first compound 15.81 µM) of 0.75, a relative viability ([1]; first compound 50 µM) of 0.765 and a relative viability ([2]; first compound 0.5 µM) of 0.178. The relative viability ([2]; first compound 1.581 µM) was 0.173, the relative viability ([2]; first compound 5 µM) was 0.203 and the relative viability ([2]; first compound 15.81 µM) was 0.227. It also gave a relative viability ([2]; first compound 50 µM) of 0.193, a relative viability ([3]; first compound 0.5 µM) of 0.804 and a relative viability ([3]; first compound 1.581 µM) of 0.781. It also gave a relative viability ([3]; first compound 5 µM) of 0.788, a relative viability ([3]; first compound 15.81 µM) of 0.881 and a relative viability ([3]; first compound 50 µM) of 0.917. It also gave a relative viability ([4]; first compound 0.5 µM) of 0.315, a relative viability ([4]; first compound 1.581 µM) of 0.391 and a relative viability ([4]; first compound 5 µM) of 0.419. For the same cell line, the relative viability ([4]; first compound 15.81 µM) was 0.36 and the relative viability ([4]; first compound 50 µM) was 0.36.
NCI-H647 gave a relative viability ([1]; first compound 0.5 µM) of 1.22, a relative viability ([1]; first compound 1.581 µM) of 1.11 and a relative viability ([1]; first compound 5 µM) of 1.09. It also gave a relative viability ([1]; first compound 15.81 µM) of 1.26, a relative viability ([1]; first compound 50 µM) of 1.26 and a relative viability ([2]; first compound 0.5 µM) of 0.204. It also gave a relative viability ([2]; first compound 1.581 µM) of 0.141, a relative viability ([2]; first compound 5 µM) of 0.132 and a relative viability ([2]; first compound 15.81 µM) of 0.234. The relative viability ([2]; first compound 50 µM) was 0.142, the relative viability ([3]; first compound 0.5 µM) was 0.521 and the relative viability ([3]; first compound 1.581 µM) was 0.531. The relative viability ([3]; first compound 5 µM) was 0.591, the relative viability ([3]; first compound 15.81 µM) was 0.626 and the relative viability ([3]; first compound 50 µM) was 0.602. It also gave a relative viability ([4]; first compound 0.5 µM) of 0.369, a relative viability ([4]; first compound 1.581 µM) of 0.438 and a relative viability ([4]; first compound 5 µM) of 0.446. The relative viability ([4]; first compound 15.81 µM) was 0.388 and the relative viability ([4]; first compound 50 µM) was 0.444.
With LCLC-97TM1 the relative viability ([1]; first compound 0.5 µM) was 0.926, the relative viability ([1]; first compound 1.581 µM) was 1.27 and the relative viability ([1]; first compound 5 µM) was 0.928. For the same cell line, the relative viability ([1]; first compound 15.81 µM) was 1.1, the relative viability ([1]; first compound 50 µM) was 1.03 and the relative viability ([2]; first compound 0.5 µM) was 0.876. The relative viability ([2]; first compound 1.581 µM) was 0.833, the relative viability ([2]; first compound 5 µM) was 0.787 and the relative viability ([2]; first compound 15.81 µM) was 0.768. For the same cell line, the relative viability ([2]; first compound 50 µM) was 0.867, the relative viability ([3]; first compound 0.5 µM) was 0.529 and the relative viability ([3]; first compound 1.581 µM) was 0.371. It also gave a relative viability ([3]; first compound 5 µM) of 0.324, a relative viability ([3]; first compound 15.81 µM) of 0.453 and a relative viability ([3]; first compound 50 µM) of 0.29. For the same cell line, the relative viability ([4]; first compound 0.5 µM) was 0.217, the relative viability ([4]; first compound 1.581 µM) was 0.247 and the relative viability ([4]; first compound 5 µM) was 0.276. For the same cell line, the relative viability ([4]; first compound 15.81 µM) was 0.274 and the relative viability ([4]; first compound 50 µM) was 0.189.
